Reference: ChEMBL document CHEMBL1201862, “PubChem BioAssay data set” (2004)
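96-well plates; 48 h exposure; 5 concentrations. Endpoints by linear interpolation between flanking doses. Not reached: highest tested concentration assigned. Abbreviation: GI50, concentration required for 50% inhibition of growth.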 Activity calls are given as the source filed them. Rule as the data show it: active = GI50 up to about 1.1 µM and inactive = higher. Non-standard residues stand in square brackets, D forms with d. Residues, ends and D or L forms follow the SMILES beside them.

Experiments:
Assay in all cases: NCI anticancer screen, dose series, 48 h
HL-60 = system: HL-60
RPMI-8226 = system: RPMI-8226
A549 = system: A549
EKVX = system: EKVX
NCI/ADR-RES = system: NCI/ADR-RES
PC-3 = system: PC-3
SNB-75 = system: SNB-75
UACC-257 = system: UACC-257
SK-MEL-5 = system: SK-MEL-5
A498 = system: A498
KM12 = system: KM12
RXF 393 = system: RXF 393
UACC-62 = system: UACC-62
SN12C = system: SN12C
OVCAR-3 = system: OVCAR-3
HCC 2998 = system: HCC 2998
OVCAR-5 = system: OVCAR-5
HCT-116 = system: HCT-116
CCRF-CEM = system: CCRF-CEM
M14 = system: M14

`CCCCCCCCCCCCC(O)C1CCC(C(O)CCCCCCC(O)CCCCCCCC2=CC(C)OC2=O)O1` (stereo not given) was tested, and the GI50 (HL-60) was 3.92 µM (inactive), the GI50 (RPMI-8226) was 7.91 µM (inactive) and the GI50 (A549) was 4.23 µM (inactive). For the same molecule, the GI50 (EKVX) was 1.71 µM (inactive), the GI50 (NCI/ADR-RES) was 1.84 µM (inactive) and the GI50 (PC-3) was 31 µM (inactive). The GI50 (SNB-75) was 5.58 µM (inactive), the GI50 (UACC-257) was 2.17 µM (inactive) and the GI50 (SK-MEL-5) was 1.19 µM (inactive). The GI50 (A498) was 32.8 µM (inactive), the GI50 (KM12) was 32.4 µM (inactive) and the GI50 (RXF 393) was 22.9 µM (inactive). The GI50 (UACC-62) was > 10 µM (inactive), the GI50 (SN12C) was 25.8 µM (inactive) and the GI50 (OVCAR-3) was 20.8 µM (inactive). For the same molecule, the GI50 (HCC 2998) was 30.9 µM (inactive), the GI50 (OVCAR-5) was > 10 µM (inactive) and the GI50 (HCT-116) was 0.127 µM (active). For the same molecule, the GI50 (CCRF-CEM) was 3.1 µM (inactive) and the GI50 (M14) was 19.2 µM (inactive).

In the case of `COc1cc(/C=C2\C(=O)N(c3cc(Cl)ccc3Cl)C(c3ccccc3)S2(=O)=O)cc(OC)c1OC` (stereo not given), the GI50 (HL-60) is reported as 19.2 µM (inactive), the GI50 (RPMI-8226) is reported as 45.4 µM (inactive) and the GI50 (A549) is reported as > 100 µM (inactive). The GI50 (EKVX) was 29.3 µM (inactive), the GI50 (NCI/ADR-RES) was 34.1 µM (inactive) and the GI50 (PC-3) was 55.8 µM (inactive). The GI50 (SNB-75) was 61.1 µM (inactive), the GI50 (UACC-257) was > 100 µM (inactive) and the GI50 (SK-MEL-5) was 57.4 µM (inactive). The GI50 (A498) was > 100 µM (inactive), the GI50 (KM12) was 36.6 µM (inactive) and the GI50 (RXF 393) was > 100 µM (inactive). The GI50 (UACC-62) was 37.2 µM (inactive), the GI50 (SN12C) was 62.1 µM (inactive) and the GI50 (OVCAR-3) was 34.8 µM (inactive). The GI50 (HCC 2998) was > 100 µM (inactive), the GI50 (OVCAR-5) was 38.5 µM (inactive) and the GI50 (HCT-116) was 38.5 µM (inactive). The GI50 (CCRF-CEM) was 42.9 µM (inactive) and the GI50 (M14) was 40.6 µM (inactive).

`O=C(O)c1c(CC(Cc2ccccc2)C(=O)O)ccc2c1CCC2` (stereo not given) was tested, and the GI50 (HL-60) was > 100 µM (inactive), the GI50 (RPMI-8226) was > 100 µM (inactive) and the GI50 (A549) was > 100 µM (inactive). The GI50 (EKVX) was > 100 µM (inactive), the GI50 (NCI/ADR-RES) was > 100 µM (inactive) and the GI50 (PC-3) was > 100 µM (inactive). For the same molecule, the GI50 (SNB-75) was > 100 µM (inactive), the GI50 (UACC-257) was > 100 µM (inactive) and the GI50 (SK-MEL-5) was > 100 µM (inactive). The GI50 (A498) was > 100 µM (inactive), the GI50 (KM12) was > 100 µM (inactive) and the GI50 (RXF 393) was > 100 µM (inactive). For the same molecule, the GI50 (UACC-62) was 4.11 µM (inactive), the GI50 (SN12C) was > 100 µM (inactive) and the GI50 (OVCAR-3) was > 100 µM (inactive). For the same molecule, the GI50 (HCC 2998) was > 100 µM (inactive), the GI50 (OVCAR-5) was > 100 µM (inactive) and the GI50 (HCT-116) was > 100 µM (inactive). The GI50 (CCRF-CEM) was > 100 µM (inactive) and the GI50 (M14) was > 10 µM (inactive).

With `COc1ccc(NC(=O)CC(=O)N2N=C(C)C(/N=N/c3ccc(C(=O)O)cc3)C2=O)cc1` (stereo not given) the GI50 (HL-60) was > 100 µM (inactive), the GI50 (RPMI-8226) was > 10 µM (inactive) and the GI50 (A549) was > 100 µM (inactive). For the same molecule, the GI50 (EKVX) was > 100 µM (inactive), the GI50 (NCI/ADR-RES) was > 100 µM (inactive) and the GI50 (PC-3) was > 100 µM (inactive). For the same molecule, the GI50 (SNB-75) was 77.3 µM (inactive), the GI50 (UACC-257) was > 100 µM (inactive) and the GI50 (SK-MEL-5) was > 100 µM (inactive). For the same molecule, the GI50 (A498) was > 100 µM (inactive), the GI50 (KM12) was 71.8 µM (inactive) and the GI50 (RXF 393) was > 100 µM (inactive). For the same molecule, the GI50 (UACC-62) was > 100 µM (inactive), the GI50 (SN12C) was > 100 µM (inactive) and the GI50 (OVCAR-3) was > 100 µM (inactive). For the same molecule, the GI50 (HCC 2998) was > 100 µM (inactive), the GI50 (OVCAR-5) was > 100 µM (inactive) and the GI50 (HCT-116) was > 100 µM (inactive). For the same molecule, the GI50 (CCRF-CEM) was > 100 µM (inactive) and the GI50 (M14) was > 100 µM (inactive).

With `CSCC[C@H](NC(=O)[C@@H](N)CC(N)=O)C(=O)N[C@@H](Cc1c[nH]c2ccccc12)C(=O)N[C@@H](CCC(N)=O)C(=O)N[C@@H](CCC(=O)O)C(=O)N[C@H](C(=O)NCC(=O)N[C@@H](CCCCN)C(=O)N[C@H](C)C(=O)O)C(C)C` (H-NMWQEVGK[dA]-OH) the GI50 (HL-60) was > 100 µM (inactive), the GI50 (RPMI-8226) was > 100 µM (inactive) and the GI50 (A549) was > 100 µM (inactive). For the same molecule, the GI50 (EKVX) was > 100 µM (inactive), the GI50 (NCI/ADR-RES) was > 100 µM (inactive) and the GI50 (PC-3) was > 100 µM (inactive). The GI50 (SNB-75) was > 100 µM (inactive), the GI50 (UACC-257) was > 100 µM (inactive) and the GI50 (SK-MEL-5) was > 100 µM (inactive). For the same molecule, the GI50 (A498) was > 100 µM (inactive), the GI50 (KM12) was > 100 µM (inactive) and the GI50 (RXF 393) was > 100 µM (inactive). The GI50 (UACC-62) was > 100 µM (inactive), the GI50 (SN12C) was > 100 µM (inactive) and the GI50 (OVCAR-3) was > 100 µM (inactive). The GI50 (HCC 2998) was > 100 µM (inactive), the GI50 (OVCAR-5) was > 100 µM (inactive) and the GI50 (HCT-116) was > 100 µM (inactive). The GI50 (CCRF-CEM) was > 100 µM (inactive) and the GI50 (M14) was > 100 µM (inactive).

For `CCOc1cnc(C(O)(c2ccccc2)c2ccccc2)o1`, the GI50 (HL-60) was > 100 µM (inactive), the GI50 (RPMI-8226) was > 100 µM (inactive) and the GI50 (A549) was > 100 µM (inactive). For the same molecule, the GI50 (EKVX) was > 100 µM (inactive), the GI50 (NCI/ADR-RES) was > 100 µM (inactive) and the GI50 (PC-3) was > 100 µM (inactive). The GI50 (SNB-75) was > 100 µM (inactive), the GI50 (UACC-257) was > 100 µM (inactive) and the GI50 (SK-MEL-5) was > 100 µM (inactive). For the same molecule, the GI50 (A498) was > 100 µM (inactive), the GI50 (KM12) was > 100 µM (inactive) and the GI50 (RXF 393) was > 100 µM (inactive). For the same molecule, the GI50 (UACC-62) was > 100 µM (inactive), the GI50 (SN12C) was > 100 µM (inactive) and the GI50 (OVCAR-3) was > 100 µM (inactive). For the same molecule, the GI50 (HCC 2998) was > 100 µM (inactive), the GI50 (OVCAR-5) was > 100 µM (inactive) and the GI50 (HCT-116) was > 100 µM (inactive). The GI50 (CCRF-CEM) was > 100 µM (inactive) and the GI50 (M14) was > 100 µM (inactive).

For `O=C(O[C@H]1[C@@H](O)[C@H](n2cnc3c(Cl)ncnc32)O[C@@H]1COC(c1ccccc1)(c1ccccc1)c1ccccc1)c1ccccc1`, the GI50 (HL-60) was 9.91 µM (inactive), the GI50 (RPMI-8226) was 2.25 µM (inactive) and the GI50 (A549) was 56.1 µM (inactive). The GI50 (EKVX) was 14.8 µM (inactive), the GI50 (NCI/ADR-RES) was 34.8 µM (inactive) and the GI50 (PC-3) was 11 µM (inactive). For the same molecule, the GI50 (SNB-75) was 45.4 µM (inactive), the GI50 (UACC-257) was 14.7 µM (inactive) and the GI50 (SK-MEL-5) was 8.47 µM (inactive). The GI50 (A498) was 17.2 µM (inactive), the GI50 (KM12) was 16.1 µM (inactive) and the GI50 (RXF 393) was 16.6 µM (inactive). The GI50 (UACC-62) was 39.5 µM (inactive), the GI50 (SN12C) was 11.9 µM (inactive) and the GI50 (OVCAR-3) was 14.2 µM (inactive). The GI50 (HCC 2998) was 16.1 µM (inactive), the GI50 (OVCAR-5) was > 100 µM (inactive) and the GI50 (HCT-116) was 40.9 µM (inactive). For the same molecule, the GI50 (CCRF-CEM) was 3.55 µM (inactive) and the GI50 (M14) was 26.3 µM (inactive).

With `O=C(c1ccc(Cl)cc1Cl)N(Cc1cccnc1)C(=S)N(Cc1cccnc1)C(=O)c1ccc(Cl)cc1Cl` the GI50 (HL-60) was 3.55 µM (inactive), the GI50 (RPMI-8226) was 0.678 µM (active) and the GI50 (A549) was 19 µM (inactive). The GI50 (EKVX) was 15.7 µM (inactive), the GI50 (NCI/ADR-RES) was 15.5 µM (inactive) and the GI50 (PC-3) was 2.4 µM (inactive). The GI50 (SNB-75) was 4.07 µM (inactive), the GI50 (UACC-257) was 6.32 µM (inactive) and the GI50 (SK-MEL-5) was 3.33 µM (inactive). The GI50 (A498) was 10.3 µM (inactive), the GI50 (KM12) was 2.96 µM (inactive) and the GI50 (RXF 393) was 6.43 µM (inactive). The GI50 (UACC-62) was 10.3 µM (inactive), the GI50 (SN12C) was 4.68 µM (inactive) and the GI50 (OVCAR-3) was 2.67 µM (inactive). For the same molecule, the GI50 (HCC 2998) was 3.4 µM (inactive), the GI50 (OVCAR-5) was 10.7 µM (inactive) and the GI50 (HCT-116) was 2.48 µM (inactive). The GI50 (CCRF-CEM) was 1.86 µM (inactive) and the GI50 (M14) was 3.01 µM (inactive).
